# Source: US9861647B2 (Prelief Inc., priority 2007, dated 2018)
# How the values were obtained:
# [1] = pH of the nebulizer solution; assay type: physicochemical; settings: 20 mg/ml in sterile water
# Method: Vehicle (sterile water) was given twice daily by inhalation (15 minutes) followed by intranasal instillation of water (2×250 μl in each nostril). […] The test-article and the compound solution were prepared in the morning of each treatment day. Vehicle and test-article were administered by inhalation and intranasal instillation twice a day. Dosing of vehicle or test compound was achieved by utilizing a face mask connected to a jet nebulizer for inhalation delivery followed by intranasal instillation in both nostrils using an Accuspray device.
# Treatment occurred on Days 0 to 5 (only AM on Day 5). Vehicle and compound were delivered in the morning (8:15-9:10 am) and the afternoon (2:00-3:30 pm). On days when acoustic rhinometry procedures were performed (Days 0), the morning dosing occurred such that the procedures were performed within 1-6 h after dosing. The pH of the compound (as administered for nasal inhalation) was recorded prior to administration. As identified in the aerosol exposure the average pH of the nebulizer solution was 8.85.
# [2] = system: human subject having a respiratory condition; test: Application of CGP (forced nasal lavage, spray/mist) to a human subject with post nasal drip, nasal obstruction and chronic cough; assay type: in vivo; settings: one subject
# Excerpt: CGP was incorporated into samples of a lavage or a spray product at varying concentrations, along with different sweetening/moisturizing components (sorbitol, glycerin) at varying levels (0.5% to 7.5% by weight), appropriate food/drug grade fungistats and bacteristats (methyl paraben and benzalkonium chloride), and light flavorings of several types (peppermint, spearmint and orange) in some iterations.
# A first human subject for laboratory/home trials was a person in good general health. […] The subject has experienced a decades-long post nasal drip (PND) as an adult, nasal obstruction (mucus, septum). The subject has experienced coughs that have been of weeks-long and, on occasion, months-long duration, following seasonal flu or colds. The subject has experienced chronic throat-clearing from PND and chronic cough even when not post-respiratory illness, which they ascribe to bronchitis. […] The subject breathed almost exclusively through mouth as a child because of nasal obstruction. The subject breathes through both nose and mouth as an adult, with breathing through nose occasionally mildly problematic, requiring active conscious engagement, although the subject was never “short of breath” in terms of lung capacity, etc.
# The subject performed forced nasal lavage once daily for about two weeks. The forced nasal lavage was conducted intranasally over skin and normally in a shower. An aqueous solution or suspension of CGP at various concentration, such as about 7.5%, 3.75%, 2.5%, 2%, 1.5% by weight of dry CGP, was forced into one nostril and out of the other nostril using a closed plastic bottle with an internal stem feed. This procedure was repeated for each side of the nostrils. Some product was swallowed via nasal route and there was approx. 2 oz. fluid per nostril.
# The subject applied CGP into their nostrils in a spray or a mist. A closed small plastic bottle with internal stem feed constructed to deliver fluid contents as mist was used. Typically, one application was performed in the morning. Each application consisted of two sprays per nostril, alternating sides, with full simultaneous deep breath inhalation or inspiration to draw the product up the nose and into the airway passages. The spray was also, on occasion, applied directly through the mouth to the throat with 1 or 2 sprays per application. An average spray delivery contained about 200 mg of a formulation of CGP per squeeze. The formulation contained about 2% to about 3.75% by weight of dry CGP.
# In addition to the routine application of CGP to prevent or control symptoms associated with the respiratory system, the subject has also used CGP to relieve symptoms during an episode of a condition of airway/upper respiratory tract. […] At about 10:45 A.M., the subject applied a double-dose of NasoCell (1.75% CGP by weight) via nasal inhalation in each nostril. At about 11:30 AM, the subject's symptoms were much improved. The subject then self-administered another dose of NasoCell in each nostril. […] The subject had no trouble breathing while they were eating during lunch. […] The subject's throat was cleared of any obstructions and breathing sounds, and was wide open. The subject's nasal passages were reopened and voice cleared from an earlier morning huskiness, characteristic of a post nasal drip condition. It is noteworthy that this subject observed that after some weeks of usage, much reduced usage was required to “maintain”, and that this included the skipping of usage altogether, some days.
# [3] = forced nasal lavage or spray/mist
substance,measurement,setting,value
calcium glycerophosphate,average pH of the nebulizer solution,[1],8.85
same,coughing,[2]; [3],complete cessation of coughing
same,reduction of post nasal drip,[2]; [3],95-98%
same,decreased drainage,"[2]; forced nasal lavage, 1.5-7.5% by weight CGP, about 10-20 minutes after the lavage",90%
same,throat-clearing diminished compared with prior state,"[2]; forced nasal lavage, about 20-60 minutes after the lavage",about 90%
same,"symptoms (drip, cough, breathing)","[2]; forced nasal lavage, about 1 hr to 12/24 hr after the lavage","no drip, no cough, and easy open breathing"
same,onset of relieving effects,"[2]; nasal spray/mist, about 2% to 3.75% by weight CGP, two sprays per nostril",almost instantaneously upon application
same,duration of benefits post application,"[2]; nasal spray/mist, about 2% to 3.75% by weight CGP",about four to eight hours
same,night breathing,[2]; single spray per nostril at bedtime,appeared to produce better night breathing
